Key:
[1] = test system: N-acyl-pipecolic acid acylase; experiment: Alternative substrates: activity of semi-purified enzyme preparation on N-acetylamino-acids; format: biochemical, Alcaligenes denitrificans; conditions: 1 ml substrate 40 g/l + 0.5 ml enzyme + 0.5 ml 100 mM Tris buffer pH 7.5; 24-25° C., 1 hour
Protocol: The sonicate supernatants were then used in the following biotransformation reactions. To 1 ml of the sonicate supernatants, 1 ml of 40 g/l solution of N-acetyl-rac-pipecolate, pH 7, was added in the presence of 0.02% sodium azide. The biotransformation reaction mixtures were incubated with shaking for 48 h at 25° C., after which samples were removed and analysed by HPLC. HPLC analysis was done using a 15 cm Hichrom S50DS2 column with an isocratic mobile phase of 30% methanol:70% 10 mM potassium phosphate buffer, pH 3, at a flow rate of 1 ml/min. The injection volume was 20 μl and the detection was at 240 nm, total run time was 10 minutes. Prior to loading on to the column, the sample was diluted 20-fold in the HPLC mobile phase and centrifuged. The analyses as shown by this procedure provided values of residual substrate concentrations. A substrate control was run in parallel with the sample reactions.
(§1) The activity of a semi-purified enzyme preparation, as described in Example 4, was tested on a range of alternative substrates. Various N-acetylamino-acid solutions were prepared at a concentration of 40 g/l in 100 mM Tris buffer at pH 7.5. Reactions were then set up using 1 ml of reaction substrate plus 0.5 ml enzyme plus 0.5 ml 100 mM Tris buffer, pH 7.5. The reaction mixtures were shaken at 24°-25° C. for 1 hour before being analysed for amino-acid formation. The extent of reaction for the N-acetylpipecolic acid and N-acetylproline biotransformations was determined using the HPLC methodology described in Example 1. The extent and enantioselectivity of the other biotransformations was determined using a Nucleosil Chiral-1 (ET250/8/4 with a buffer phase of 1 mM copper acetate at pH 5 in 5% methanol, and a flow rate of 0.8 ml/min, with detection at 254 nm. Samples were diluted 100-fold and areas compared to relevant standards.

[2] = test system: N-acylamino-acid acylase of EP-A-0416282; conditions: cited from earlier work
[3] = test system: N-acetyl-pipecolic acid acylase activity; experiment: Use of inducer: flask cultures with additive, acylase activity of the cell extract; format: cell-based, Alcaligenes denitrificans; conditions: for Specific (activity) / Volumetric Activity: additive in growth medium (5 g/l), extract used in 24 hour biotransformation of 20 g/l N-acetyl-(R,S)-pipecolic acid, 1U = release of 1 μmole pipecolic acid per minute
Protocol: It has been observed by other workers that an inducer must be added to the fermentation medium to obtain N-acyl-amino-acid acylase activity. This adds to the cost of producing the enzyme. Flask cultures were set up to determine the requirement for an inducer. Medium used was similar to that described in Table 1, except that the N-acetyl-L-phenylalanine was omitted, 1 g/l yeast extract was added and the following 4 variations were set up.
The final pH of all flasks was adjusted to pH 7.0 and a total of 50 ml added to 500 ml conical flasks. Following inoculation, the flasks were incubated at 25° C. with shaking for 19 hours. The cells were then collected by centrifugation, resuspended in 10 mM phosphate buffer, pH 7 and lysed by sonication. The released enzyme extract was then used in a 24 hour biotransformation of 20 g/l N-acetyl-(R,S)-pipecolic acid.
1U = release of 1 μmole pipecolic acid per minute

[4] = test system: N-acyl-pipecolic acid acylase (amino acylase); experiment: Alternative buffers: effect of high phosphate on the biotransformation; format: biochemical, Alcaligenes denitrificans; conditions: for Amino-acid formed: pH 7.5
Protocol: as §1
The acylase disclosed in EP-A-0416282 is inhibited by reaction in buffers containing phosphate at high concentrations. The effect of high phosphate on the biotransformation was determined using a similar methodology to that described in Example 6.

Q: Which Amino-acid formed [1] does the source give for `CC(=O)NC(C)C(=O)O` (racemic) [N-acetyl-(R,S)-alanine] here?
A: 3.4 g/L

Q: What about the “activity of the enzyme against substrate” value ([2]; enzyme of EP-A-0416282) of the same molecule?
A: non-detectable

Q: Which Amino-acid formed [1] does the source give for `CC(=O)NCCCC[C@H](N)C(=O)O` [εN-acetyl-(S)-lysine] here?
A: 0.0 g/L

Q: With `CC(=O)NC(Cc1ccccc1)C(=O)O` (racemic) [N-acetyl-(R,S)-phenylalanine] as the molecule, how does the Amino-acid formed [1] read?
A: 5.3 g/L

Q: And the “activity of the enzyme against substrate” value ([2]; enzyme of EP-A-0416282)?
A: non-detectable

Q: For `CC(=O)N1CCCCC1C(=O)O` (racemic) [N-acetyl-(R,S)-pipecolic acid], which “Specific (activity)” value [3] is on record?
A: 0.086 U/mg protein

Q: What about the “Volumetric Activity” value [3] of the same molecule?
A: 0.017 U/ml

Q: What about the Amino-acid formed [1] of the same molecule?
A: 6.3 g/L

Q: And the Amino-acid formed ([4]; 100 mM Phosphate)?
A: 6.3 g/L

Q: What about the Amino-acid formed ([4]; 100 mM Tris) of the same molecule?
A: 6.3 g/L

Q: For `O=C[C@H](O)[C@@H](O)[C@H](O)[C@H](O)CO` [Glucose], which “N-acetyl-pipecolic acid acylase activity of the flask” value ([3]; additive 5 g/l in growth medium) is on record?
A: no N-acetyl-pipecolic acid acylase activity

Q: What about the “Volumetric Activity” value [3] of the same molecule?
A: 0.00 U/ml

Q: With `CC(=O)N1CCC[C@H]1C(=O)O` [N-acetyl-(S)-proline] as the molecule, how does the “Specific (activity)” value [3] read?
A: 0.033 U/mg protein

Q: And the “Volumetric Activity” value [3]?
A: 0.042 U/ml

Q: What about the Amino-acid formed [1] of the same molecule?
A: 3.2 g/L

Q: And the Amino-acid formed ([4]; 100 mM Phosphate)?
A: 3.2 g/L

Q: What about the Amino-acid formed ([4]; 100 mM Tris) of the same molecule?
A: 3.2 g/L

Q: With phosphate as the molecule, how does the “inhibitory effect on the amino acylase” value ([4]; final phosphate concentration equal to or greater than 75 mM) read?
A: no significant inhibitory effect

Q: And the “inhibition of the acylase by buffer” value ([2]; buffers containing phosphate at high concentrations)?
A: inhibited

Q: For N-acyl-pipecolic acid, which “activity of the enzyme relative to its activity on N-acetyl-proline” value ([2]; enzyme of EP-A-0416282) is on record?
A: less than 5%

Q: Which Amino-acid formed [1] does the source give for `CC(=O)NC(CCC(=O)O)C(=O)O` (racemic) [N-acetyl-(R,S)-glutamic acid] here?
A: 0.2 g/L

Q: Which Amino-acid formed [1] does the source give for `CC(=O)NC(Cc1ccc(C#N)cc1)C(=O)O` (racemic) [N-acetyl-(R,S)-4-cyanophenylalanine] here?
A: 8.3 g/L
